Assay results reported in US12576099B2, “Ribose-modified cap analog and use thereof” (Beijing Youcare Kechuang Pharmaceutical Technology Co., Ltd., priority 2024, dated 2026).

Experiments:
T7 RNA polymerase [1] = target: T1, T7 RNA polymerase (Escherichia phage T7, UniProt P00573); assay: In vitro transcription yield of mRNA using cap analogs; format: biochemical; conditions: for Yield per unit template: in vitro transcription, 1 μg DNA template, 37° C., 2 hours
Procedure: • (1) Capping synthesis using cap analogs
The plasmid was first linearized with plasmid linearizing enzyme, and then the linearized plasmid was purified. • (2) In vitro transcription and synthesis of mRNA
(§1) During the experiment, the volume of materials required for the system was first calculated, and then sample addition was conducted. The system was first added with sterile enzyme-free water, followed by the sequential addition of 10× buffer, NTPs, and cap analogs, mixed well, and gently centrifuged. Nuclease inhibitors, inorganic pyrophosphatase, T7RNA polymerase, and linearized DNA templates were then added thereto. The system was mixed well, gently centrifuged, and incubated at 37° C. After 2 hours of incubation, the system was added with 1 U of DNase I and incubated at 37° C. for another 30 minutes. The mRNA precipitate was then washed with 75% ethanol, and after the ethanol was briefly evaporated to dryness, the mRNA was redissolved in sterile enzyme-free water. • (3) The transcription product was purified, and the in vitro transcription yield of mRNA was recorded. • (4) The obtained mRNA was subjected to an annealing reaction with a probe.

T7 RNA polymerase [2] = target: T1, T7 RNA polymerase; assay: Capping rate of mRNA transcription initiated by cap analogs (LC-MS); format: biochemical; conditions: for Capping rate: LC-MS of mRNA 5′ fragment
Procedure: as §1
The annealing reaction was performed in a PCR instrument: 95° C. for 5 minutes; 65° C. for 2 minutes; 55° C. for 2 minutes; 40° C. for 2 minutes; 22° C. for 2 minutes. • (5) Magnetic bead pretreatment and probe binding: 100 μL of magnetic beads was placed on a magnetic frame for pretreatment. The magnetic bead solution was added with 120 μL of sample and incubated at room temperature for 30 minutes with slow mixing. • (6) mRNA splicing and obtaining the mRNA 5′ single-strand sequence bound to the probe
The mixture was added with 20 μL of RNase H (5 U/μL) and incubated at 37° C. for 3 hours with mixing every half hour. After incubation, the magnetic beads were washed and then added with 100 μL of 75% methanol heated to 80° C. The mixture was heated to 80° C. on a heating plate, held for 3 minutes, then placed on a magnetic frame to aspirate the supernatant, and dried at room temperature for 45 minutes to a volume of 10 μL using a centrifugal evaporator. The sample was then resuspended in 50 μL of 100 μM EDTA/1% MeOH and ready for LC-MS analysis to determine the capping of RNA in the transcription reaction. Since there is a significant difference in molecular weight between capped and uncapped bases, the capping rate of mRNA transcription initiated by different cap analogs can be determined based on the difference in molecular mass.

HEK293T cells = assay: Translation efficiency of different capped luciferase mRNAs; format: cell-based; conditions: for Relative fluorescence intensity: HEK293T, 0.5 μg mRNA per well, 24 hours, proportional to translation efficiency; for Multiple of m6A (relative fluorescence intensity): relative to m6A
Procedure: • (1) HEK293T cells were cultured in DMEM medium containing 10% FBS and penicillin/streptomycin at 37° C. with 5% CO2. • (2)Cells in the culture dish were digested and counted, then spread in a 96-well plate at 10,000 cells per well, and cultured overnight until the cells adhered to the wall. • (3) When the cell density reached approximately 80%, transfection was performed by adding 0.5 μg of mRNA sample and Lipofectamine MessengerMAX Transfection Reagent (Invitrogen) per well according to the manufacturer's instructions. • (4) After the transfected cells were cultured at 37° C. with 5% CO2 for 24 hours, the growth medium was removed from the cells to be tested, and the cells were rinsed with PBS. After centrifugation to remove PBS, 50 μL of 1× lysis buffer was added. The cells and all liquid were transferred to a microcentrifuge tube and centrifuged. • (5) 20 μL of sample was taken and added to 100 μL of Dual-Lumi™ II Luciferase Assay Reagent pre-equilibrated to room temperature, and mixed appropriately. • (6) The mixture was incubated at room temperature (approximately 25° C.) for 5 minutes to stabilize the luminescence signal. Chemiluminescence was detected using a multifunctional microplate reader with a function for detecting chemiluminescence, and the data were recorded.
The relative fluorescence intensity is proportional to the translation efficiency of mRNA.

DCP2 enzyme = target: T2, DCP2 enzyme (Schizosaccharomyces pombe, UniProt O13828); assay: Decapping enzyme stability test; format: biochemical; conditions: for Decapping rate (%) of DCP2 enzyme: 50 U mRNA decapping enzyme, 37° C., 45 minutes
T2 construct: purchased New England Biolabs
T2 sequence (O13828 1-243 limits assumed): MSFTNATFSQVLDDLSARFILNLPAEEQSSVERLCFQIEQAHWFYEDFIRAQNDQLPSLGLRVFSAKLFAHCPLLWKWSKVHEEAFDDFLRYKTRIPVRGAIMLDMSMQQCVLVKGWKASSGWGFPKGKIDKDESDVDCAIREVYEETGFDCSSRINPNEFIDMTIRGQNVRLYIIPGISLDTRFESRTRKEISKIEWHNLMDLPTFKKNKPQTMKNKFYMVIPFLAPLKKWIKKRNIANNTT
T2 sequence (Q9P805 1-127 partner): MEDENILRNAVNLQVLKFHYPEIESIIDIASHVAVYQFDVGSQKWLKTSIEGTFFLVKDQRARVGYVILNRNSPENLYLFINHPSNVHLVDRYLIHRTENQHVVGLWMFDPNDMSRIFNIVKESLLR
T2 sequence (Q10108 155-180 partner limits assumed): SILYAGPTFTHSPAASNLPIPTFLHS
Procedure: […] of RNA purified by polyacrylamide gel electrophoresis (PAGE) was subjected to an enzymatic reaction with 50 U of mRNA decapping enzyme (New England Biolabs) and 1×MDE buffer at 37° C. for 45 minutes. The enzymatic reactants were subjected to PAGE and stained with SYBR Green II (Lonza), followed by observation of the post-electrophoresis gel image on a Typhoon FLA 7000 (GE Healthcare) instrument. The electrophoresis band intensity ratio of RNA capping to RNA decapping was counted using ImageQuant (GE Healthcare) software, and the decapping rate of the decapping enzyme was calculated.

T1 sequence (P00573 whole entry): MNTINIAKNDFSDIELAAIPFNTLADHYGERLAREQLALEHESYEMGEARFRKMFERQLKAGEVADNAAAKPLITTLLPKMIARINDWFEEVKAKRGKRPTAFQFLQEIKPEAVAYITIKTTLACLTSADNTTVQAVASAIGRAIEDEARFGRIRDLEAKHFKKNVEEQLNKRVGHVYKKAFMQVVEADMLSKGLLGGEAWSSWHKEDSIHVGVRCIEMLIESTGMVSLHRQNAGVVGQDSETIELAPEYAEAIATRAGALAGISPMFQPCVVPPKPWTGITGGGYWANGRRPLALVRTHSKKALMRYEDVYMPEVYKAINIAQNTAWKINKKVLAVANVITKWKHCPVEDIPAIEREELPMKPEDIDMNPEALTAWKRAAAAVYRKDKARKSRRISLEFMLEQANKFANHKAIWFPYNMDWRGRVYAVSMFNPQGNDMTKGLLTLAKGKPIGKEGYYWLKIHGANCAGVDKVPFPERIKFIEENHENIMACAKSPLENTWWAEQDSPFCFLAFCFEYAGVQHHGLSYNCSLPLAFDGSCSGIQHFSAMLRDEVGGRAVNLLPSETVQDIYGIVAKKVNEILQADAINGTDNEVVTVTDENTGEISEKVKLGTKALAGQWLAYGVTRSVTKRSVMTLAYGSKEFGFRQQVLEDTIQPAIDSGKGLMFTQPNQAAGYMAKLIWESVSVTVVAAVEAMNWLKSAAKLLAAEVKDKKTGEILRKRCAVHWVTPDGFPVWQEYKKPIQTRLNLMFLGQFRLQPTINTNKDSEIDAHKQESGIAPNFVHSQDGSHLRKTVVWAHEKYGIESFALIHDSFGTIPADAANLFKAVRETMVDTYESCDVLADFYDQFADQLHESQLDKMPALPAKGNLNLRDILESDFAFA

Row | SMILES | Yield per unit template (T7 RNA polymerase [1]) | Increase relative to 5227 (in vitro transcription yield) (T7 RNA polymerase [1]) | Capping rate (T7 RNA polymerase [2]) | Increase relative to 5227 (capping rate) (T7 RNA polymerase [2]) | Relative fluorescence intensity (HEK293T cells) | Multiple of m6A (relative fluorescence intensity) (HEK293T cells) | Decapping rate (%) of DCP2 enzyme (DCP2 enzyme) | Decrease relative to N-7113 (decapping rate) (DCP2 enzyme) | further results
1 | CO[C@@H]1[C@H](OP(=O)(O)OC[C@H]2O[C@@H](n3cnc4c(=O)[nH]c(N)nc43)[C@H](O)[C@@H]2O)[C@@H](COP(=O)(O)OP(=O)(O)OP(=O)(O)OC[C@H]2OC([n+]3cn(C)c4c(=O)[nH]c(N)nc43)[C@H](O)[C@@H](O)[C@@H]2O)O[C@H]1n1cnc2c(N)ncnc21 (stereo partly shown) [YK-CAP-101] | 32.5 µg | −75.8% | 42.8% | −40.5% | 0.22 | 0.6 | 32.4% | 11.4% | –
2 | CO[C@@H]1[C@H](OP(=O)(O)OC[C@H]2O[C@@H](n3cnc4c(=O)[nH]c(N)nc43)[C@H](O)[C@@H]2O)[C@@H](COP(=O)(O)OP(=O)(O)OP(=O)(O)OC[C@H]2O[C@@H]([n+]3cn(C)c4c(=O)[nH]c(N)nc43)[C@H](O)[C@]2(C)NC(C)=O)O[C@H]1n1cnc2c(N)ncnc21 [YK-CAP-106] | 155.5 µg | 15.9% | 95.3% | 32.5% | 1.53 | 4.0 | 17.3% | 26.5% | –
3 | COC(C)[C@H]1[C@@H](O)[C@H]([n+]2cn(C)c3c(=O)[nH]c(N)nc32)O[C@@H]1COP(=O)(O)OP(=O)(O)OP(=O)(O)OC[C@H]1O[C@@H](n2cnc3c(N)ncnc32)[C@H](OC)[C@@H]1OP(=O)(O)OC[C@H]1O[C@@H](n2cnc3c(=O)[nH]c(N)nc32)[C@H](O)[C@@H]1O (stereo partly shown) [YK-CAP-107] | 170.7 µg | 27.2% | 97.3% | 35.3% | 1.62 | 4.3 | 11.5% | 32.3% | –
4 | CO[C@@H]1[C@H](OP(=O)(O)OC[C@H]2O[C@@H](n3cnc4c(=O)[nH]c(N)nc43)[C@H](O)[C@@H]2O)[C@@H](COP(=O)(O)OP(=O)(O)OP(=O)(O)OC[C@H]2O[C@@H]([n+]3cn(C)c4c(=O)[nH]c(N)nc43)[C@H](O)[C@@H]2C(C)NC(C)=O)O[C@H]1n1cnc2c(N)ncnc21 (stereo partly shown) [YK-CAP-108] | 151.8 µg | 13.1% | 95.8% | 33.2% | 1.43 | 3.8 | 16.3% | 27.5% | –
5 | CO[C@@H]1[C@H](OP(=O)(O)OC[C@H]2O[C@@H](n3cnc4c(=O)[nH]c(N)nc43)[C@H](O)[C@@H]2O)[C@@H](COP(=O)(O)OP(=O)(O)OP(=O)(O)OC[C@H]2O[C@@H]([n+]3cn(C)c4c(=O)[nH]c(N)nc43)[C@H](O)[C@@H]2C(C)F)O[C@H]1n1cnc2c(N)ncnc21 (stereo partly shown) [YK-CAP-109] | 168.1 µg | 25.3% | 95.2% | 32.4% | 1.53 | 4.0 | 17.3% | 26.5% | –
6 | CO[C@@H]1[C@H](OP(=O)(O)OC[C@H]2O[C@@H](n3cnc4c(=O)[nH]c(N)nc43)[C@H](O)[C@@H]2O)[C@@H](COP(=O)(O)OP(=O)(O)OP(=O)(O)OC[C@H]2O[C@@H]([n+]3cn(C)c4c(=O)[nH]c(N)nc43)[C@H](O)[C@@H]2C(F)F)O[C@H]1n1cnc2c(N)ncnc21 [YK-CAP-110] | 172.1 µg | 28.2% | 97.4% | 35.5% | 1.95 | 5.1 | 10.2% | 33.6% | Relative fluorescence intensity, times that of HN3002 (HEK293T cells; relative to HN3002): 1.7 times; Relative fluorescence intensity, times that of N-7113 (HEK293T cells; relative to N-7113): 1.9 times; Relative fluorescence intensity (translation efficiency), times that of YK-CAP-101 (HEK293T cells; relative to YK-CAP-101): 8.9 times; Relative fluorescence intensity, times that of YK-CAP-102 (HEK293T cells; relative to YK-CAP-102): 5.7 times; Relative fluorescence intensity, times that of YK-CAP-103 (HEK293T cells; relative to YK-CAP-103): 2.5 times; Relative fluorescence intensity, times that of YK-CAP-104 (HEK293T cells; relative to YK-CAP-104): 2.4 times; Relative fluorescence intensity, times that of YK-CAP-105 (HEK293T cells; relative to YK-CAP-105): 2.7 times; Relative fluorescence intensity, times that of compound 14 (HEK293T cells; relative to compound 14): 1.7 times; Decapping rate lower than that of HN3002 (DCP2 enzyme; relative to HN3002): 13.1%; Decapping rate lower than that of YK-CAP-101 (DCP2 enzyme; relative to YK-CAP-101): 22.2%; Decapping rate lower than that of YK-CAP-102 (DCP2 enzyme; relative to YK-CAP-102): 31.0%; Decapping rate lower than that of YK-CAP-103 (DCP2 enzyme; relative to YK-CAP-103): 26.3%; Decapping rate lower than that of YK-CAP-104 (DCP2 enzyme; relative to YK-CAP-104): 35.9%; Decapping rate lower than that of YK-CAP-105 (DCP2 enzyme; relative to YK-CAP-105): 23.7%; Decapping rate lower than that of compound 14 (DCP2 enzyme; relative to compound 14): 16.6%; Decapping rate lower than that of m6A (DCP2 enzyme; relative to m6A): 23.6%
